Patent US20080004235A1, “TOPICAL COMPOSITIONS COMPRISING ONE OR MORE OF 4-THIOURIDINE, ISOMALTITOL AND URIDINE” (priority 2005, published 2008)

Experiments:
skin = assay: Preliminary safety evaluation of topical exposure (SLS or UVB provoked skin), methodological study on humans; assay type: in vivo, human
Source text: Skin irritation and dermatitis is a common problem among health care professionals due to frequent washing. We have utilized two well-established skin irritation models to investigate the effect of topically administered uridine or isomalt on skin physiology including measurement of dermal blood flow. Isomalt consists of 1,6-glucopyranosyl-D-sorbitol (GPS, isomaltitol) and 1,1-glucopyranosyl-D-mannitol (GPM) in a 1:1 ratio. The methodological study involves the study of various physiological parameters, such as dermal blood flow and visual assessment of erythema, subsequent to provocation by either exposure to UVB light or Sodium Lauryl Sulphate (SLS) and the effects of isomalt and uridine on these parameters. Only a very small area of the skin was exposed to the irritants UVB or SLS. The methodological study has been approved by the Medical Products Agency, Sweden and the Regional Ethical Review Board, Linköping, Sweden.
UVB provocation with a divergent beam produces a circular, radially fading skin erythema, the diameter of which corresponds to the minimal erythemal dose. […] SLS, which is a detergent, creates a local skin irritation mainly by disturbing the skins barrier function. A methodological study has been performed, both to evaluate the effects of uridine or isomalt on skin UVB-induced erythema and SLS irritation. […]

[1] = cited from earlier work
rats = conditions: rat, in vivo; cited from earlier work

Molecule: isomalt
- untoward effects such as exacerbated skin irritation or itching related to the exposure (skin; in vivo): no untoward effects

Molecule: OC[C@H](O)[C@@H](O)[C@H](O)[C@H](O)CO[C@H]1O[C@H](CO)[C@@H](O)[C@H](O)[C@H]1O [isomaltitol, 6-O-α-D-glucopyranosyl-D-sorbitol]
- rise in blood glucose and insulin levels ([1]; compared to sugars and other carbohydrates): only a very small rise
- absorption ([1]; in vivo): very slow and limited
- toxic effect (rats): doesn't seem to have any toxic effect

Molecule: O=c1ccn([C@@H]2O[C@H](CO)[C@@H](O)[C@H]2O)c(=O)[nH]1 [uridine]
- untoward effects such as exacerbated skin irritation or itching related to the exposure (skin; saturated solution, topical exposure for 24 hours, all individuals): no untoward effects
